# According to patent publication US20260028390A1, “ALPHA1-ANTITRYPSIN FOR USE IN THE TREATMENT OF DISEASES OR DISORDERS OF THE NERVOUS SYSTEM SUCH AS CHRONIC INFLAMMATORY DEMYELINATING POLYNEUROPATHY” (Ageronix SA, priority 2022, published 2026):
# Where “and” joins values, the source holds several entries; their conditions need not be identical. Identical values can stand only once.
# Columns and labels:
# CIDP mice [1] = experiment: Grip strength test, CIDP mouse model; type: in vivo; details: for Grip strength (Mean ± SD): CIDP mice; for Grip strength, group Mean: group mean of 4 animals; for Grip strength, Mean/animal: per animal; for Grip strength, Mean/animal / Grip strength, set 1 / Grip strength, set 2 / Grip strength, set 3: listed as hAAT; for Grip strength, set 1 / Grip strength, set 2 / Grip strength, set 3: raw data per animal
# Experimental: (§1) C57BL/6 mice were received at 8 weeks of age and housed under controlled conditions for the duration of the study. Three groups of 4 animals each were assigned to the following subcutaneous treatments twice daily at 7:00 AM and 7:00 PM for 2 weeks, from 20 to 35 days after the start of disease induction: • Wild type (WT) mice receiving the vehicle, 0.9% NaCl (positive control) • CIDP mice receiving the vehicle, 0.9% NaCl (negative control) • CIDP mice receiving human AAT (AAT), 50 mg/kg per injection
# (§2) Disease induction consisted in subcutaneous injection of mouse sciatic nerve homogenate in phosphate buffer saline (PBS)+Freund's adjuvant mixture at 10 mL/kg. For each treatment, 3 different body sites injections were performed. Control mice also received three subcutaneous injections of PBS+Freund's adjuvant at the same 3 different body sites.
# (§3) On the first (Day 20) and last (Day 35) day of treatment, the neuromuscular and performance of animals was tested with a rotarod test, grip test and a sensory test using the Von Frey filament test, as well as sciatic nerve electrophysiology test. After the last treatment at Day 35, these tests were repeated, animals were sacrificed and the left sciatic nerve was sampled for histological evaluation of the number and size of […].
# plasma IL-6 = experiment: Plasma IL-6, CMT mice treated with AAT 180 mg/kg/day sc; type: in vivo, mouse
# From the text: Animals were received at 6 weeks of age and housed under controlled conditions for the duration of the study. The study comprised two groups of 8 transgenic mice (CMT mice) each and one group of 8 age matched wild type (WT) C57B16 mice, serving as positive control. Animals were assigned to the following subcutaneous treatments twice daily at 7:00 AM and 7:00 PM for 2 weeks, starting from 8 weeks and up to 10 weeks of age: • Wild-type (WT, no disease) mice receiving vehicle, 0.9% NaCl (positive control) • CMT1A mice receiving vehicle, 0.9% NaCl (negative control) • CMT1A mice receiving AAT at 90 mg/kg per injection (daily dose 180 mg/kg)
# The efficacy parameters included: • neuromuscular performance (rotarod latency to fall and grip strength test), • sciatic nerve electrophysiology (CMAP amplitude and NCV) • cytokine (IL-6 and TNFα), as well as NfL analysis • sciatic nerve histology (number of axons and axonal diameter),
# As supportive information for the mode of action of AAT in CMT, plasma concentration of interleukin 6 (IL-6) and TNFα were measured at Day 1 (8 weeks), Day 15 (10 weeks) and Day 30 (12 weeks). At the same timepoints, plasma levels of the biomarker of nerve damage, NfL were determined.
# [2] = system: CMT1A mice B6.Cg-Tg(PMP22)C3Fbas/J; experiment: Grip strength, CMT mice treated with AAT 180 mg/kg/day sc; type: in vivo, mouse; details: 8 weeks old, CMT + hAAT 180 mg/kg/day SC, individual animal
# SH-SY5Y cells = experiment: Cell viability assay (CCK-8) of SH-SY5Y treated with 6-OHDA; type: cell-based; details: 6-OHDA combined with AAT 25 μM, CCK-8 absorbance 450 nm
# Experimental: SH-SY5Y cells, which are commonly used to model neurodegenerative disorders, were used to produce an in vitro Parkinson's model (Que R, et al., 2021, Front. Immunol. 12). Cells were cultured in DMEMF12/Glutamax supplemented with 10% FBS.
# Cells were treated for 24 hours with the neurotoxin 6-hydroxydopamine (6-OHDA, Sigma Aldrich 162957) at 50, 100 μM concentrations alone or in combination with AAT 25 μM (AAT plasma derived, Sigma Aldrich batch A9024). Cells treated with AAT alone or in combination with 6-OHDA for 24 hours, were then incubated with fresh AAT for additional 24 hours. Control cells were treated with PBS.
# At day 0 cells were plated in equally number in 24-well plate, the day after they were treated as described above, and final total cell count was performed at day 4 of culture (cell growth). Cell viability was assessed with Cell Counting Kit-8 (CCK-8; Sigma Aldrich 96992). After treatments, cells were incubated with 10 μl of CCK-8 solution for 2 hours in the incubator. Absorbance was measured at 450 nm using SpectraMax iD3 Microplate Reader. Experiments were performed in triplicate.
# CIDP mice [3] = experiment: Rotarod test, CIDP mouse model; type: in vivo; details: for Rotarod latency (Mean ± SEM): CIDP mice; for Rotarod latency, group Mean: group mean of 4 animals; for Rotarod latency, Mean/animal: per animal; for Rotarod latency, Mean/animal / Rotarod latency, set 1 / Rotarod latency, set 2 / Rotarod latency, set 3: listed as hAAT; for Rotarod latency, set 1 / Rotarod latency, set 2 / Rotarod latency, set 3: raw data per animal
# Experimental: as §1, §2, §3
# [4] = CIDP + AAT 50 mg/kg sc twice daily, Day 35
# [5] = Day 35, AAT 50 mg/kg sc twice daily
substance,measurement,setting,value
alpha1-antitrypsin (AAT) protein,grip strength compared to the vehicle treated group,CIDP mice [1]; [4],increase
same,Grip strength (Mean ± SD),CIDP mice [1]; Day 20 (baseline),2.89 ± 0.32 newtons
same,Grip strength (Mean ± SD),CIDP mice [1]; [5],3.59 ± 0.35 newtons
same,"Grip strength, group Mean",CIDP mice [1]; Baseline (Day 20),2.89 Newton
same,"Grip strength, group Mean",CIDP mice [1]; Day 35,3.59 Newton
same,"Grip strength, Mean/animal",CIDP mice [1]; Baseline (Day 20),2.46 Newton and 3.19 Newton and 2.83 Newton and 3.08 Newton
same,"Grip strength, Mean/animal",CIDP mice [1]; Day 35,3.68 Newton and 3.69 Newton and 3.91 Newton and 3.10 Newton
same,"Grip strength, set 1",CIDP mice [1]; Baseline (Day 20),2.92 Newton and 3.06 Newton and 2.89 Newton and 3.50 Newton
same,"Grip strength, set 2",CIDP mice [1]; Baseline (Day 20),2.43 Newton and 2.09 Newton and 2.45 Newton and 2.62 Newton
same,"Grip strength, set 3",CIDP mice [1]; Baseline (Day 20),2.04 Newton and 4.42 Newton and 3.14 Newton and 3.13 Newton
same,"Grip strength, set 1",CIDP mice [1]; Day 35,4.92 Newton and 4.55 Newton and 5.15 Newton and 3.47 Newton
same,"Grip strength, set 2",CIDP mice [1]; Day 35,3.53 Newton and 2.00 Newton and 3.04 Newton and 2.61 Newton
same,"Grip strength, set 3",CIDP mice [1]; Day 35,2.58 Newton and 4.52 Newton and 3.53 Newton and 3.23 Newton
same,Plasma IL-6 (Mean ± SD),"plasma IL-6; 8 weeks old (baseline, Day 1), CMT1A + AAT",133.48 ± 31.45 pg/mL
same,Plasma IL-6 (Mean ± SD),"plasma IL-6; 10 weeks old (Day 15, after 2 weeks AAT 90 mg/kg sc twice daily)",69.78 ± 11.76 pg/mL
same,positive effect on IL-6 plasma levels,"plasma IL-6; 12 weeks of age, after 2-week treatment-free period",remained significant
same,Plasma IL-6 (Mean ± SD),"plasma IL-6; 12 weeks old (Day 30, after 2-week treatment-free period)",120.90 ± 6.47 pg/mL
same,plasma levels of IL-6,"plasma IL-6; CMT mice, AAT 90 mg/kg sc twice a day, P<0.01",reduced
same,"Grip strength, Mean/animal",[2],4.83 NEWTONS and 2.73 NEWTONS and 2.97 NEWTONS and 4.09 NEWTONS and 5.05 NEWTONS and 7.59 NEWTONS and 5.53 NEWTONS and 5.68 NEWTONS
same,"Grip strength, set 1",[2],3.97 NEWTONS and 2.15 NEWTONS and 3.47 NEWTONS and 4.13 NEWTONS and 4.85 NEWTONS and 8.17 NEWTONS and 6.20 NEWTONS and 4.87 NEWTONS
same,"Grip strength, set 2",[2],5.37 NEWTONS and 4.34 NEWTONS and 2.22 NEWTONS and 4.58 NEWTONS and 3.84 NEWTONS and 5.69 NEWTONS and 4.40 NEWTONS and 5.39 NEWTONS
same,"Grip strength, set 3",[2],5.14 NEWTONS and 1.69 NEWTONS and 3.21 NEWTONS and 3.55 NEWTONS and 6.47 NEWTONS and 8.92 NEWTONS and 5.99 NEWTONS and 6.77 NEWTONS
same,cell count and viability compared to 6-OHDA treatment alone,SH-SY5Y cells,significantly enhanced
same,rotarod latency compared to the vehicle treated group,CIDP mice [3]; [4],increase
same,Rotarod latency (Mean ± SEM),"CIDP mice [3]; Day 20 (baseline, first treatment day)",25.96 ± 6.16 s
same,Rotarod latency (Mean ± SEM),CIDP mice [3]; [5],34.96 ± 9.47 s
same,"Rotarod latency, group Mean",CIDP mice [3]; Baseline (Day 20),25.96 s
same,"Rotarod latency, group Mean",CIDP mice [3]; Day 35,34.96 s
same,"Rotarod latency, Mean/animal",CIDP mice [3]; Baseline (Day 20),17.68 s and 29.19 s and 31.82 s and 25.13 s
same,"Rotarod latency, Mean/animal",CIDP mice [3]; Day 35,38.90 s and 36.28 s and 43.23 s and 21.41 s
same,"Rotarod latency, set 1",CIDP mice [3]; Baseline (Day 20),19.1 s and 28.0 s and 28.7 s and 24.1 s
same,"Rotarod latency, set 2",CIDP mice [3]; Baseline (Day 20),17.7 s and 26.7 s and 33.0 s and 24.0 s
same,"Rotarod latency, set 3",CIDP mice [3]; Baseline (Day 20),16.2 s and 32.9 s and 33.8 s and 27.3 s
same,"Rotarod latency, set 1",CIDP mice [3]; Day 35,32.02 s and 44.79 s and 52.44 s and 37.74 s
same,"Rotarod latency, set 2",CIDP mice [3]; Day 35,36.34 s and 31.48 s and 34.61 s and 19.21 s
same,"Rotarod latency, set 3",CIDP mice [3]; Day 35,48.35 s and 32.56 s and 42.63 s and 7.29 s
